Laboratory results taken from PMC12362618, “Development of the First Small-Molecule Inhibitor Targeting Oncostatin M for Treatment of Breast Cancer” (Journal of Medicinal Chemistry, 2025).
Like-named read-outs stand apart in the source and are kept apart here.

What was measured:
Format in all cases: cell-based
[1] = test system: OSM-induced pSTAT3 in T47D human breast cancer cells; assay: pSTAT3 ELISA in T47D cells treated with OSM ± SMI; conditions: for IC50: Homo sapiens
Protocol: (§1) To test the effect of SMIs in vitro, each SMI was incubated with OSM for a period of 1 h at 37 °C, and T47D and MDA-MB-231 human breast cancer cell lines were subsequently treated with OSM (10 ng/mL) and/or SMI-10 (10 μM) analogs for 30 min and measured for pSTAT3 levels via ELISA. The results of these assays are presented graphically in Figure and, for T47D cells, in Table as a percentage of reduction from +OSM alone. For phospho-STAT3 (pSTAT3) ELISAs, T47D MDA-MB-231, and MCF-7 cells were seeded in 12- or 24-well plates at 70–75% confluency and allowed to adhere overnight, after which cells were serum-starved with serum-free RPMI-1640 for 4 h. SMIs (10 μM in DMSO or serially diluted to specified concentrations from a 100 mM stock in DMSO) and human recombinant OSM (10 ng/mL; PeproTech; #300–10T-10UG) were incubated in serum-free RPMI-1640 medium for 1 h. After incubation, the SMI-10 analogs or SMI-10B13 and OSM were added to the serum-starved cells for 30 min. Immediately afterward, the cells were lysed using 1x PathScan Sandwich ELISA Lysis Buffer (Cell Signaling Technology; #7018S), collected, and stored at −20 °C. Lysates were analyzed for pSTAT3 levels using either the PathScan Phospho-STAT3 (Tyr705) Sandwich ELISA Antibody Pair kit (Cell Signaling Technology; #7146) or Human/Mouse Phospho-STAT3 (Y705) DuoSet IC ELISA (R&D Systems; DYC4607B), according to manufacture’s protocol. pSTAT3 expression was measured with absorbance at 450 nm and quantified by comparison relative to OSM-induced pSTAT3 levels. To calculate an IC50 for SMI-10B13, a standard curve was generated as described in the DuoSet IC ELISA datasheet to determine the concentration of pSTAT3.

[2] = test system: OSM-induced pSTAT3 in MDA-MB-231 human breast cancer cells; assay: pSTAT3 ELISA in MDA-MB-231 cells treated with OSM ± SMI; conditions: SMI 10 μM, OSM 10 ng/mL, 30 min
Protocol: as §1, with “2 High-throughput virtual screening identifies three novel compounds capable of interacting with site III of OSM. […] (F) Structure of parent SMI-10. Data are presented as mean ± SD relative to + OSM treatment, analyzed by one-way ANOVA with Tukey’s posttest *p < 0.05, **p < 0.01. To test” for “To test”

[3] = test system: OSM-mediated STAT3 phosphorylation in MCF-7 cells; assay: pSTAT3 ELISA in MCF-7 cells treated with OSM ± SMI; conditions: Homo sapiens, MCF7
Protocol: as §1, with “For” for “To test the effect of SMIs in vitro, each SMI was incubated with OSM for a period of 1 h at 37 °C, and T47D and MDA-MB-231 human breast cancer cell lines were subsequently treated with OSM (10 ng/mL) and/or SMI-10 (10 μM) analogs for 30 min and measured for pSTAT3 levels via ELISA. The results of these assays are presented graphically in Figure and, for T47D cells, in Table as a percentage of reduction from +OSM alone. For”

[4] = T47D, SMI 10 μM + OSM 10 ng/mL, 30 min, ELISA, relative to +OSM, no-treatment blank subtracted

| Structure (SMILES) | Relative pSTAT3 Levels (Table 1, SMI-10A-10J) [1, 4] [%] | Relative pSTAT3 Levels (Table 2, SMI-10B analogs) [1, 4] [%] | Inhibition of OSM-induced pSTAT3 via ELISA ([1]; T47D, SMI 10 μM, OSM 10 ng/mL, 30 min) | Inhibition of OSM-induced pSTAT3 via ELISA [2] | IC50 ([1]; Figure S3 graph A (T47D by order), four parameter nonlinear regression, given as negative log value, read-out: LogIC50 (graph A) (converted)) [nM] | IC50 ([1]; T47D cells, ELISA, read-out: IC50 for inhibition of STAT3 phosphorylation) [nM] | Relative pSTAT3 Levels (Table 2, SMI-10B analogs) ([1]; T47D, SMI 10 μM + OSM 10 ng/mL, 30 min, ELISA, relative to +OSM, no-treatment blank subtracted, listed as 10B13) [%] | IC50 ([3]; Figure S3 graph B (MCF-7 by order), four parameter nonlinear regression, given as negative log value, read-out: LogIC50 (graph B) (converted)) [nM] | IC50 ([3]; MCF-7 cells, ELISA, read-out: IC50 for inhibition of STAT3 phosphorylation) [nM] |
| --- | --- | --- | --- | --- | --- | --- | --- | --- | --- |
| O=C(O)/C=C/c1cc(-c2ccc3c(c2)OCO3)c(-c2ccc3c(c2)OCO3)o1 [SMI-10B, (E)-3-(4,5-Bis(benzo[d][1,3]dioxol-5-yl)furan-2-yl)acrylic acid] | 12.8 | 30.14 | capable of inhibiting OSM-induced pSTAT3 | capable of inhibiting OSM-induced pSTAT3 |  |  |  |  |  |
| O=C(O)/C=C/c1cc(-c2ccc3cc[nH]c3c2)c(-c2ccc3cc[nH]c3c2)o1 [SMI-10B13, (E)-3-(4,5-di(1H-Indol-6-yl)furan-2-yl)acrylic Acid] |  | 32.7 |  |  | 136 | 136 | 32.73 | 164 | 164 |
